Source: patent US12534501B2, “Targeting deregulated Wnt signaling in cancer using stabilized alpha-helices of BCL-9” (Dana-Farber Cancer Institute, Inc., priority 2011, dated 2026)
Numbered stars: 1 amine (or outer) side, 2 acyl side, 3 side chain; on linkers, the order of the positions; unused ones are H or OH. Bridge positions count the residues as written; N and C are the ends. Square brackets hold non-standard residues; d marks the D form. Peptide text beside a SMILES is read from it. ξ: configuration not given here. ξαMeNle(6-ylidene) = CC(CCCC=[*:3])(N[*:1])C(=O)[*:2]; Nle = CCCC[C@H](N)C(=O)O

Experiments:
[1] = test system: Wnt target genes in DLD1 colon cancer cell line; test: Affymetrix gene expression profiling / GSEA and qRT-PCR validation; format: cell-based
Protocol: RNA from SAH-BCL9B and vehicle (0.1% DMSO)-treated cells were run on an Affymetrix U133A 2.0 array chip as described (Mollering et al, Nature 462, 182-8 (2009). Statistical analyses were performed in R (http://www.r-project.org). The array data were normalized with rma method (Bolstad, B. M., et al. Bioinformatics 19, 185-93 (2003)) as implemented in the Affy package (http://www.bioconductor.org/packages/2.6/bioc/html/affy.html) and differential expression calculated with empirical Bayes shrinkage of the standard errors toward a common value with LIMMA (http://www.bioconductor.org/packages/2.6/bioc/html/limma.html) (McCarthy, D. J. & Smyth, G. K. Bioinformatics 25, 765-71 (2009); Smyth, G. K. Stat Appl Genet Mol Biol 3, Article3 (2004)). Gene set enrichment analysis was performed using GSEA software (version 2.06) and mSigDB (version 2.5) (Subramanian, A. et al. Proc Natl Acad Sci USA 102, 15545-50 (2005)).
To further investigate the specificity of SAH-BCL9B in blocking Wnt transcriptional activity, comparative genome-wide expression analyses of Wnt target genes in the DLD1 colon cancer cell line, for which a Wnt transcription pathway signature has been described (L. G. Van der Flier et al., Gastroenterology 132, 628 (2007)), was performed. RNA from triplicate SAH-BCL9B- and vehicle-treated DLD1 samples (10 μM each for 12 hours) was isolated for gene expression profiling analyses. Affymetrix Human U133 Plus 2.0 arrays were processed using the function of the affy Bioconductor package (URL http://www.R-project.org.). Gene sets were compiled from Van der Flier et al. and gene set enrichment and statistical analyses performed using GSEA software (http://www.broad.mit.edu/GSEA) and a two-tailed t-test, respectively. Microarray data has been deposited in the Gene Expression Omnibus (http://www.ncbi.nlm.nih.gov/geo) and comply with MIAME annotation standards. […]

[2] = test system: colorectal primary tumors (CCPT); test: Cell proliferation, [3H]thymidine uptake; format: cell-based, human; details: primary CRC cells; 5 μM, 24 h
From the text: (§1) Bone marrow specimens were obtained from patients with MM in accordance with Dana-Farber Cancer Institute Review Board approval and informed consent performed in compliance with the Declaration of Helsinki. Primary CD138+ plasma cells were purified using magnetic beads as described (Sukhdeo, K. et al. Proc Natl Acad Sci USA 104, 7516-21 (2007)). CRC primary tumor samples were obtained from the Brigham and Women's Hospital in accordance with the policies of their Institutional Review Board. To generate sufficient CRC primary tumor cells for experimentation, the primary tumors were first expanded subcutaneously in NOD/SCID mice (Jackson Laboratory). After the tumors reached 2 cm in diameter, mice were sacrificed according to institutional guidelines and subcutaneous tumor xenografts were minced with a scalpel and digested by incubation with collagenase IV (Worthington Biomedical Corporation) and 0.01% DNase I (Sigma-Aldrich) at 37° C. for 30 min, followed by additional mechanical disaggregation using a Stomacher device (Seward Laboratory Systems Inc.). […]
(§2) Cell proliferation assays were performed as described (Sukhdeo, K. et al. Proc Natl Acad Sci USA 104, 7516-21 (2007)). Cell viability was measured using the CellTiter-Glo assay (Promega) according to the manufacturer's instructions. Apoptosis was evaluated by activated caspase-3 and PARP western blotting. […]

[3] = test system: multiple myeloma primary tumors (MMPT); test: Cell proliferation, [3H]thymidine uptake; format: cell-based, human; details: primary MM cells; 5 μM
From the text: as §1, §2

[4] = test system: CRC cell lines expressing BCL9; test: Cell proliferation of cultured colon cancer cells; format: cell-based
Protocol: (§3) Cell proliferation assays were performed as described (Sukhdeo, K. et al. Proc Natl Acad Sci USA 104, 7516-21 (2007)). Cell viability was measured using the CellTiter-Glo assay (Promega) according to the manufacturer's instructions. Apoptosis was evaluated by activated caspase-3 and PARP western blotting. See results in FIG. 3A-FIG. 3F, FIG. 13, and FIG. 20.

[5] = test system: HCT116, HCT116DO20 and HCT116KO58 cells; test: Cell proliferation of cultured colon cancer cells; format: cell-based; details: HCT116 and derivatives, not dependent on Wnt/β-catenin activity
Protocol: as §3

[6] = test system: LS174T cell line; test: Cell proliferation of cultured colon cancer cells; format: cell-based; details: does not express BCL9
Protocol: as §3

[7] = test system: HUVEC; test: In vitro angiogenesis assay (capillary tube formation); format: cell-based, human; details: HUVEC with supernatants of Colo320 or MM1S cells treated at 5 μM for 24 h; read at 5 h
Protocol: Angiogenesis was evaluated as previously described (Mani, M. et al. Cancer Res 69, 7577-86 (2009)) using an in vitro angiogenesis assay kit (Millipore). For capillary tube formation analysis, HUVEC were cultured on polymerized matrix gel and exposed to supernatant media collected from Colo320 or MM1S cells treated with vehicle (0.5% DMSO), SAH-BCL9B peptides (5 μM) for 24 h. The number of capillary tubes formed after 5 h treatment at 37° C. was determined by counting 5 randomly selected fields at 40× magnification, according to manufacture's instructions. HUVEC cultured in VEGF media and VEGF-free media were used as positive and negative controls, respectively. Cellular invasion assays were performed using Matrigel Boyden chambers (BD Biosciences) as described (Mani, M. et al. Cancer Res 69, 7577-86 (2009)). The reported data represent the average of three independent experiments performed in triplicate. See results in FIG. 3H-FIG. 3I.

[8] = test system: Colo320 cells; test: Combination with 5-fluorouracil, 3H-thymidine incorporation; format: cell-based; details: Colo320, increasing concentrations of 5-FU
Protocol: (§4) To test whether the anti-proliferative effect of SAH-BCL9B could synergize with other agents commonly used to treat MM or CRC, combination treatment studies were conducted. Indeed, the cytotoxic effects of 5-fluorouracil on CRC cells and of doxorubicin on MM cells were enhanced by SAH-BCL9B, but not by vehicle or the mutant peptide. See results in FIG. 21.

[9] = test system: MM1S cells; test: Combination with doxorubicin, 3H-thymidine incorporation; format: cell-based; details: increasing concentrations of Dox
Protocol: as §4

With `CCCC[C@H](NC(=O)[C@H](CCCNC(=N)N)NC(=O)[C@H](CCC(N)=O)NC(=O)[C@@H](NC(=O)C1(C)CCCC=CCCCC(C)(NC(=O)[C@H](CC(C)C)NC(=O)[C@H](CO)NC(=O)[C@H](CCCNC(=N)N)NC(=O)[C@H](CCC(=O)O)NC(=O)[C@H](CCCNC(=N)N)NC(=O)[C@H](Cc2c[nH]cn2)NC(=O)[C@H](CCC(=O)O)NC(=O)[C@H](CC(C)C)NC(=O)[C@H](CCC(N)=O)NC(=O)[C@H](CCC(=O)O)NC(=O)[C@H](CCC(N)=O)NC(=O)[C@H](CO)NC(=O)[C@H](CC(C)C)NC(C)=O)C(=O)N[C@@H]([C@@H](C)O)C(=O)N[C@@H](CC(C)C)C(=O)N[C@@H](CCCNC(=N)N)C(=O)N1)[C@@H](C)CC)C(=O)N[C@@H](CC(C)C)C(=O)N[C@@H](Cc1ccccc1)C(N)=O` (some centres unmarked) [SAH-BCL9B] (Ac-LSQEQLEHRERSL[ξαMeNle(6-ylidene)]TLR[ξαMeNle(6-ylidene)]IQR[Nle]LF-NH2; staple 14-18) the VEGF-A expression ([1]; DLD1) was “downregulated”, the Axin2 expression ([1]; DLD1, 10 μM, 12 hours) was “among the most down-regulated genes” and the “GSEA correlation of down-regulated genes with dominant-negative TCF1 and TCF4” value ([1]; DLD1, 10 μM, 12 hours, adenoma and carcinoma signatures) was “strong and statistically significant correlation”. For the same molecule, the proliferation [2] was “reduced the proliferation”, the proliferation [3] was “reduced the proliferation” and the proliferation [4] was “significantly reduced the proliferation”. For the same molecule, the proliferation [5] was “no sensitivity”, the proliferation [6] was “no response” and the capillary tube formation [7] was “reduced capillary tube formation”. For the same molecule, the “enhancement of anti-tumor activity of 5-fluorouracil” value [8] was “significantly enhanced the anti-tumor activity” and the “enhancement of anti-tumor activity of doxorubicin” value [9] was “significantly enhanced the anti-tumor activity”.
